Data reported in patent US9237747B2, “Herbicidal compositions comprising 4-amino-3-chloro-5-fluoro-6-(4-chloro-2-fluoro-3-methoxyphenyl) pyridine-2-carboxylic acid or a derivative thereof and insecticides” (priority 2013, dated 2016).
Like-named read-outs stand apart in the source and are kept apart here.

Tests used:
[1] = system: CYPIR; format: in vivo, Cyperus iria; details: 480 g ai/ha alone
From the text: (§1) Seeds or nutlets of the desired test plant species were planted in a soil matrix prepared by mixing a loam or sandy loam soil (e.g., 28.6 percent silt, 18.8 percent clay, and 52.6 percent sand, with a pH of about 5.8 and an organic matter content of about 1.8 percent) and calcareous grit in an 80 to 20 ratio. The soil matrix was contained in plastic pots with a volume of 1 quart and a surface area of 83.6 square centimeters (cm^2). When required to ensure good germination and healthy plants, a fungicide treatment and/or other chemical or physical treatment was applied. The plants were grown for 8-22 days in a greenhouse with an approximate 14 hour (h) photoperiod which was maintained at about 29° C. during the day and 26° C. during the night. Nutrients (Peters Excel® 15-5-15 5-Ca 2-Mg and iron chelate) were applied in the irrigation solution as needed and water was added on a regular basis. Supplemental lighting was provided with overhead metal halide 1000-Watt lamps as necessary. The plants were employed for testing when they reached the first through fourth true leaf stage.
(§2) Treatments consisted of the acid or esters of 4-amino-3-chloro-6-(4-chloro-2-fluoro-3-methoxyphenyl)-5-fluoropyridine-2-carboxylic acid (Compound A), each formulated as an SC (suspension concentrate), and various insecticidal components alone and in combination. Forms of compound A were applied on an acid equivalent basis.
(§3) Treatment requirements were calculated based upon the rates being tested, the concentration of active ingredient or acid equivalent in the formulation, and a 12 milliliter (mL) application volume at a rate of 187 liters per hectare (L/ha).
(§4) For treatments comprised of formulated compounds, measured amounts of compounds were placed individually in 25 mL glass vials and diluted in a volume of 1.25% volume per volume (v/v) Agri-Dex® crop oil concentrate to obtain 12× stock solutions. […] Application solutions were prepared by adding an appropriate amount of each stock solution (e.g., 1 mL) and diluted to the appropriate final concentrations with the addition of […] of an aqueous mixture of 1.25% (v/v) crop oil concentrate so that the final spray solutions contained 1.25+/−0.05% (v/v) crop oil concentrate.
(§5) As required, additional water and/or 97:3 v/v acetone/DMSO was added to individual application solutions so that the final acetone and DMSO concentrations of the application solutions being compared were 8.1% and 0.25%, respectively.
(§6) All stock solutions and applications solutions were visually inspected for compound compatibility prior to application. Spray solutions were applied to the plant material with an overhead Mandel track sprayer equipped with 8002E nozzles calibrated to deliver 187 L/ha over an application area of 0.503 square meters (m^2) at a spray height of 18 to 20 inches (46 to 50 cm) above average plant canopy height. Control plants were sprayed in the same manner with the solvent blank.
(§7) The treated plants and control plants were placed in a greenhouse as described above and watered by sub-irrigation to prevent wash-off of the test compounds. After approximately 3 weeks, the condition of the test plants as compared to that of the untreated plants was determined visually and scored on a scale of 0 to 100 percent where 0 corresponds to no injury or growth inhibition and 100 corresponds to complete kill.
(§8) Colby's equation was used to determine the herbicidal effects expected from the mixtures (Colby, S. R. Calculation of the synergistic and antagonistic response of herbicide combinations. Weeds 1967, 15, 20-22.).
(§9) The following equation was used to calculate the expected activity of mixtures containing two active ingredients, A and B: Expected=A+B−(A×B/100)

[2] = system: ECHCO; assay: Postemergence foliar-applied weed control, direct-seeded rice (greenhouse); format: in vivo, Echinochloa colonum
Protocol: as §1, with “When required to ensure good germination and healthy plants, a fungicide treatment and/or other chemical or physical treatment was applied.” left out
as §2, §4, §5, §6, §7, §8, §9

[3] = system: LEFCH; assay: whole plant or invertebrate; format: in vivo, Leptochloa chinensis
Protocol: as §1, with “When required to ensure good germination and healthy plants, a fungicide treatment and/or other chemical or physical treatment was applied.” left out
as §2, §4, §5, §6, §7, §8, §9

[4] = system: SCPJU; assay: Postemergence foliar-applied weed control, direct-seeded rice (greenhouse); format: in vivo, Schoenoplectus juncoides; details: 480 g ai/ha alone
From the text: as §1, with “Supplemental lighting was provided with overhead metal halide 1000-Watt lamps as necessary. The plants were employed for testing when they reached the first through fourth true leaf stage.” left out
as §3
For treatments comprised of formulated compounds, measured amounts of compounds were placed individually in 25 mL glass vials and diluted in a volume of 1.25% volume per volume (v/v) Agri-Dex® crop oil concentrate to obtain 12× stock solutions. […]

[5] = system: CYPES; format: in vivo, Cyperus esculentus
Protocol: as §1, with “When required to ensure good germination and healthy plants, a fungicide treatment and/or other chemical or physical treatment was applied.” left out
as §2, §4, §5, §6, §7, §8, §9

[6] = system: ECHCG; format: in vivo, Echinochloa crus-galli
Protocol: as §1, with “When required to ensure good germination and healthy plants, a fungicide treatment and/or other chemical or physical treatment was applied.” left out
as §2, §4, §5, §6, §7, §8, §9

[7] = system: IPOHE; format: in vivo, Ipomoea hederacea
Protocol: as §1, with “When required to ensure good germination and healthy plants, a fungicide treatment and/or other chemical or physical treatment was applied.” left out
as §2, §4, §5, §6, §7, §8, §9

[8] = system: CYPRO; assay: In-water applied weed control, transplanted paddy rice (greenhouse); format: in vivo, Cyperus rotundus; details: 21 DAA
Protocol: (§10) Weed seeds or nutlets of the desired test plant species were planted in puddled soil (mud) prepared by mixing a shredded, non-sterilized mineral soil (50.5 percent silt, 25.5 percent clay, and 24 percent sand, with a pH of about 7.6 and an organic matter content of about 2.9 percent) and water at a 1:1 volumetric ratio. The prepared mud was dispensed in 365 mL aliquots into 16-ounce (oz.) non-perforated plastic pots with a surface area of 86.59 square centimeters (cm^2) leaving a headspace of 3 centimeters (cm) in each pot. Rice seeds were planted in Sun Gro MetroMix® 306 planting mixture, which typically has a pH of 6.0 to 6.8 and an organic matter content of about 30 percent, in plastic plug trays. Seedlings at the second or third leaf stage of growth were transplanted into 860 mL of mud contained in 32-oz. non-perforated plastic pots with a surface area of 86.59 cm^2 4 days prior to herbicide application. The paddy was created by filling the headspace of the pots with 2.5 to 3 cm of water. When required to ensure good germination and healthy plants, a fungicide treatment and/or other chemical or physical treatment was applied. The plants were grown for 4-22 days in a greenhouse with an approximate 14 h photoperiod which was maintained at about 29° C. during the day and about 26° C. during the night. Nutrients were added as Osmocote® (17:6:10, N:P:K+minor nutrients) at 2 grams (g) per 16-oz. pot and 4 g per 32-oz. pot. Water was added on a regular basis to maintain the paddy flood, and supplemental lighting was provided with overhead metal halide 1000-Watt lamps as necessary. The plants were employed for testing when they reached the first through fourth true leaf stage.
Treatments consisted of the acid or esters of 4-amino-3-chloro-5-fluoro-6-(4-chloro-2-fluoro-3-methoxy-phenyl)pyridine-2-carboxylic acid (compound A) each formulated as an SC (suspension concentrate) and various herbicidal components alone and in combination. Forms of compound A were applied on an acid equivalent basis.
Other […] components were applied on an active ingredient basis and consisted of etofenprox (technical grade material) and sulfoxaflor formulated as Sulfoxaflor WG.
(§11) Treatment requirements for each compound or herbicidal component were calculated based upon the rates being tested, the concentration of active ingredient or acid equivalent in the formulation, an application volume of 2 mL per component per pot, and an application area of 86.59 cm^2 per pot.
For formulated compounds, a measured amount was placed in an individual 100 or 200 mL glass vial and was dissolved in a volume of 1.25% (v/v) AgriDex® crop oil concentrate to obtain application solutions.
For technical grade compounds, a weighed amount was placed in an individual 100 to 200 mL glass vial and was dissolved in a volume of acetone to obtain concentrated stock solutions.
Applications were made by injecting with a pipetter appropriate amounts of the application solutions, individually and sequentially, into the aqueous layer of the paddy. Control plants were treated in the same manner with the solvent blank. Applications were made so that all treated plant material received the same concentrations of acetone and crop oil concentrate.
as §7, with “and water was added as needed” for “and watered by sub-irrigation”, “to maintain a paddy flood.” for “to prevent wash-off of the test compounds.”, “3 weeks” for “3 weeks,”, “compared with” for “compared to”
Colby's equation was used to determine the herbicidal effects expected from the mixtures (Colby, S. R. Calculation of the synergistic and antagonistic response of herbicide combinations. Weeds 1967, 15, 20-22.). […]

[9] = system: ECHCG; assay: as above; format: in vivo, Echinochloa crus-galli
Protocol: as §10, with “stage. […]” for “stage.”
as §11
For formulated compounds, a measured amount was placed in an individual 100 or 200 mL glass vial and was dissolved in a volume of 1.25% (v/v) AgriDex® crop oil concentrate to obtain application solutions. […]
The treated plants and control plants were placed in a greenhouse as described above and water was added as needed to maintain a paddy flood. After approximately 3 weeks the condition of the test plants as compared with that of the untreated plants was determined visually and scored on a scale of 0 to 100 percent where 0 corresponds to no injury or growth inhibition and 100 corresponds to complete kill. […]

CNC(=O)CSP(=S)(OC)OC [Dimethoate, O,O-dimethyl S-methylcarbamoylmethyl phosphorodithioate]
Visual Weed Control (%) - 22 DAA CYPIR Obs [1]: 0% | Visual Weed Control (%) - 22 DAA ECHCO Obs ([2]; 480 g ai/ha alone): 10% | pest or weed control at 480 g/ha ([3]; Dinebra chinensis, post-emergence, 528 h, read-out: Visual Weed Control (%) - 22 DAA LEFCH Obs): 0% | Visual Weed Control (%) - 22 DAA SCPJU Obs [4]: 0%

CCOc1ccc(C(C)(C)COCc2cccc(Oc3ccccc3)c2)cc1 [Etofenprox, 2-(4-ethoxyphenyl)-2-methylpropyl 3-phenoxybenzyl ether]
Visual Weed Control (%) - 22 DAA CYPES Obs ([5]; 75 g ai/ha alone): 0% | Visual Weed Control (%) - 22 DAA CYPES Obs ([5]; 150 g ai/ha alone): 0% | Visual Weed Control (%) - 22 DAA ECHCG Obs ([6]; 75 g ai/ha alone): 0% | Visual Weed Control (%) - 22 DAA ECHCG Obs ([6]; 150 g ai/ha alone): 0% | Visual Weed Control (%) - 19 DAA ECHCG Obs ([6]; 300 g ai/ha alone): 0% | Visual Weed Control (%) - 19 DAA ECHCO Obs ([2]; 300 g ai/ha alone): 0% | Visual Weed Control (%) - 22 DAA IPOHE Obs ([7]; 75 g ai/ha alone): 0% | Visual Weed Control (%) - 22 DAA IPOHE Obs ([7]; 150 g ai/ha alone): 0% | Visual Weed Control (%) - 19 DAA LEFCH Obs ([3]; 300 g ai/ha alone): 0% | pest or weed control at 150 g/ha ([3]; Dinebra chinensis, post-emergence, 528 h, 150 g ai/ha alone, read-out: Visual Weed Control (%) - 22 DAA LEFCH Obs): 0% | Visual Weed Control (%) - 21 DAA CYPRO Obs ([8]; 75 g ai/ha alone): 0% | Visual Weed Control (%) - 21 DAA CYPRO Obs ([8]; 150 g ai/ha alone): 0% | Visual Weed Control (%) - 21 DAA CYPRO Obs ([8]; 300 g ai/ha alone): 0% | Visual Weed Control (%) - 21 DAA ECHCG Obs ([9]; 75 g ai/ha alone): 0% | Visual Weed Control (%) - 21 DAA ECHCG Obs ([9]; 150 g ai/ha alone): 0% | Visual Weed Control (%) - 21 DAA ECHCG Obs ([9]; 300 g ai/ha alone): 0%
